# Measurements: US20140343000A1 (priority 2011, published 2014)
# Tested on: recombinant NL4-3 virus (Renilla luciferase in nef, Gag P373S; NLRluc) in MT-2 cells
# Experiment: whole plant or invertebrate
# Type: cell-based, HIV
# Conditions: Renilla, NL43, luciferase activity in cells infected for 4-5 days with NLRluc recombinants, serial dilutions of inhibitor; class symbols (key in Table 1); read-out: EC50
# Method in brief: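 First, reporter virus was generated in 293T cells and titered on MT-2 cells. Next, MT-2 cells were infected in the presence of serial compound dilutions for 4-5 days. Finally, cells were lysed and luciferase activity was measured to quantify inhibition.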
row,SMILES,EC50
1,"C=C(C)[C@@H]1CC[C@]2(NC(=O)C(=O)Nc3nccs3)CC[C@]3(C)[C@H](CC[C@@H]4[C@@]5(C)CC=C(c6ccc(C(=O)O)cc6)C(C)(C)[C@@H]5CC[C@]43C)[C@@H]12 [Example 79, 4-((1R,3aS,5aR,5bR,7aR,11aS,11bR,13aR,13bR)-5a,5b,8,8,11a-pentamethyl-3a-(2-oxo-2-(thiazol-2-ylamino)acetamido)-1-(prop-1-en-2-yl)-2,3,3a,4,5,5a,5b,6,7,7a,8,11,11a,11b,12,13,13a,13b-octadecahydro-1H-cyclopenta[a]chrysen-9-yl)benzoic acid]",< 100 nM
2,"C=C(C)[C@@H]1CC[C@]2(NC(=O)CCN3CCS(=O)(=O)CC3)CC[C@]3(C)[C@H](CC[C@@H]4[C@@]5(C)CC=C(c6ccc(C(=O)O)cc6)C(C)(C)[C@@H]5CC[C@]43C)[C@@H]12 [Example 81, benzoic acid, 4-[(1R,3aS,5aR,5bR,7aR,11aS,11bR,13aR,13bR)-3a-[[3-(1,1-dioxido-4-thiomorpholinyl)-1-oxopropyl]amino]-2,3,3a,4,5,5a,5b,6,7,7a,8,11,11a,11b,12,13,13a,13b-octadecahydro-5a,5b,8,8,11a-pentamethyl-1-(1-methylethenyl)-1H-cyclopenta[a]chrysen-9-yl]]",< 100 nM
3,"C=C(C)[C@@H]1CC[C@]2(NC(=O)CN3CCS(=O)(=O)CC3)CC[C@]3(C)[C@H](CC[C@@H]4[C@@]5(C)CC=C(c6ccc(C(=O)O)cc6)C(C)(C)[C@@H]5CC[C@]43C)[C@@H]12 [Example 82, benzoic acid, 4-[(1R,3aS,5aR,5bR,7aR,11aS,11bR,13aR,13bR)-3a-[[(1,1-dioxido-4-thiomorpholinyl)acetyl]amino]-2,3,3a,4,5,5a,5b,6,7,7a,8,11,11a,11b,12,13,13a,13b-octadecahydro-5a,5b,8,8,11a-pentamethyl-1-(1-methylethenyl)-1H-cyclopenta[a]chrysen-9-yl]]",< 100 nM
4,"C=C(C)[C@@H]1CC[C@]2(NC(=O)CN3C[C@@H](C)O[C@@H](C)C3)CC[C@]3(C)[C@H](CC[C@@H]4[C@@]5(C)CC=C(c6ccc(C(=O)O)cc6)C(C)(C)[C@@H]5CC[C@]43C)[C@@H]12 [Example 83, 4-((1R,3aS,5aR,5bR,7aR,11aS,11bR,13aR,13bR)-3a-(2-((2S,6R)-2,6-dimethylmorpholino)acetamido)-5a,5b,8,8,11a-pentamethyl-1-(prop-1-en-2-yl)-2,3,3a,4,5,5a,5b,6,7,7a,8,11,11a,11b,12,13,13a,13b-octadecahydro-1H-cyclopenta[a]chrysen-9-yl)benzoic acid]",< 100 nM
5,"C=C(C)[C@@H]1CC[C@]2(NC(=O)CN3CCN(CCO)CC3)CC[C@]3(C)[C@H](CC[C@@H]4[C@@]5(C)CC=C(c6ccc(C(=O)O)cc6)C(C)(C)[C@@H]5CC[C@]43C)[C@@H]12 [Example 84, 4-((1R,3aS,5aR,5bR,7aR,11aS,11bR,13aR,13bR)-3a-(2-(4-(2-hydroxyethyl)piperazin-1-yl)acetamido)-5a,5b,8,8,11a-pentamethyl-1-(prop-1-en-2-yl)-2,3,3a,4,5,5a,5b,6,7,7a,8,11,11a,11b,12,13,13a,13b-octadecahydro-1H-cyclopenta[a]chrysen-9-yl)benzoic acid]",< 100 nM
6,"C=C(C)[C@@H]1CC[C@]2(NC(=O)CN3CCN(CC)CC3)CC[C@]3(C)[C@H](CC[C@@H]4[C@@]5(C)CC=C(c6ccc(C(=O)O)cc6)C(C)(C)[C@@H]5CC[C@]43C)[C@@H]12 [Example 85, 4-((1R,3aS,5aR,5bR,7aR,11aS,11bR,13aR,13bR)-3a-(2-(4-ethylpiperazin-1-yl)acetamido)-5a,5b,8,8,11a-pentamethyl-1-(prop-1-en-2-yl)-2,3,3a,4,5,5a,5b,6,7,7a,8,11,11a,11b,12,13,13a,13b-octadecahydro-1H-cyclopenta[a]chrysen-9-yl)benzoic acid]",< 100 nM
7,"C=C(C)[C@@H]1CC[C@]2(NC(=O)CN(C)CCOC)CC[C@]3(C)[C@H](CC[C@@H]4[C@@]5(C)CC=C(c6ccc(C(=O)O)cc6)C(C)(C)[C@@H]5CC[C@]43C)[C@@H]12 [Example 86, 4-((1R,3aS,5aR,5bR,7aR,11aS,11bR,13aR,13bR)-3a-(2-((2-methoxyethyl)(methyl)amino)acetamido)-5a,5b,8,8,11a-pentamethyl-1-(prop-1-en-2-yl)-2,3,3a,4,5,5a,5b,6,7,7a,8,11,11a,11b,12,13,13a,13b-octadecahydro-1H-cyclopenta[a]chrysen-9-yl)benzoic acid]",< 100 nM
8,"C=C(C)[C@@H]1CC[C@]2(NC(=O)Cn3cc(-c4ccccc4)cn3)CC[C@]3(C)[C@H](CC[C@@H]4[C@@]5(C)CC=C(c6ccc(C(=O)O)cc6)C(C)(C)[C@@H]5CC[C@]43C)[C@@H]12 [Example 87, 4-((1R,3aS,5aR,5bR,7aR,11aS,11bR,13aR,13bR)-5a,5b,8,8,11a-pentamethyl-3a-(2-(4-phenyl-1H-pyrazol-1-yl)acetamido)-1-(prop-1-en-2-yl)-2,3,3a,4,5,5a,5b,6,7,7a,8,11,11a,11b,12,13,13a,13b-octadecahydro-1H-cyclopenta[a]chrysen-9-yl)benzoic acid]",< 100 nM
9,"C=C(C)[C@@H]1CC[C@]2(NC(=O)Cn3ccnn3)CC[C@]3(C)[C@H](CC[C@@H]4[C@@]5(C)CC=C(c6ccc(C(=O)O)cc6)C(C)(C)[C@@H]5CC[C@]43C)[C@@H]12 [Example 88, 4-((1R,3aS,5aR,5bR,7aR,11aS,11bR,13aR,13bR)-3a-(2-(1H-1,2,3-triazol-1-yl)acetamido)-5a,5b,8,8,11a-pentamethyl-1-(prop-1-en-2-yl)-2,3,3a,4,5,5a,5b,6,7,7a,8,11,11a,11b,12,13,13a,13b-octadecahydro-1H-cyclopenta[a]chrysen-9-yl)benzoic acid]",< 100 nM
10,"C=C(C)[C@@H]1CC[C@]2(NC(=O)Cn3ccnc3)CC[C@]3(C)[C@H](CC[C@@H]4[C@@]5(C)CC=C(c6ccc(C(=O)O)cc6)C(C)(C)[C@@H]5CC[C@]43C)[C@@H]12 [Example 89, 4-((1R,3aS,5aR,5bR,7aR,11aS,11bR,13aR,13bR)-3a-(2-(1H-imidazol-1-yl)acetamido)-5a,5b,8,8,11a-pentamethyl-1-(prop-1-en-2-yl)-2,3,3a,4,5,5a,5b,6,7,7a,8,11,11a,11b,12,13,13a,13b-octadecahydro-1H-cyclopenta[a]chrysen-9-yl)benzoic acid]",< 100 nM
11,"C=C(C)[C@@H]1CC[C@]2(NC(=O)C(C)N3CCS(=O)(=O)CC3)CC[C@]3(C)[C@H](CC[C@@H]4[C@@]5(C)CC=C(c6ccc(C(=O)O)cc6)C(C)(C)[C@@H]5CC[C@]43C)[C@@H]12 (stereo partly drawn) [Example 93, benzoic acid, 4-[(1R,3aS,5aR,5bR,7aR,11aS,11bR,13aR,13bR)-3a-[[2-(1,1-dioxido-4-thiomorpholinyl)-1-oxopropyl]amino]-2,3,3a,4,5,5a,5b,6,7,7a,8,11,11a,11b,12,13,13a,13b-octadecahydro-5a,5b,8,8,11a-pentamethyl-1-(1-methylethenyl)-1H-cyclopenta[a]chrysen-9-yl]]",< 100 nM
12,"C=C(C)[C@@H]1CC[C@]2(NC(=O)CN3CC(F)(F)C3)CC[C@]3(C)[C@H](CC[C@@H]4[C@@]5(C)CC=C(c6ccc(C(=O)O)cc6)C(C)(C)[C@@H]5CC[C@]43C)[C@@H]12 [Example 94, 4-((1R,3aS,5aR,5bR,7aR,11aS,11bR,13aR,13bR)-3a-(2-(3,3-difluoroazetidin-1-yl)acetamido)-5a,5b,8,8,11a-pentamethyl-1-(prop-1-en-2-yl)-2,3,3a,4,5,5a,5b,6,7,7a,8,11,11a,11b,12,13,13a,13b-octadecahydro-1H-cyclopenta[a]chrysen-9-yl)benzoic acid]",< 100 nM
13,"C=C(C)[C@@H]1CC[C@]2(NC(=O)CN3CCCC3=O)CC[C@]3(C)[C@H](CC[C@@H]4[C@@]5(C)CC=C(c6ccc(C(=O)O)cc6)C(C)(C)[C@@H]5CC[C@]43C)[C@@H]12 [Example 95, 4-((1R,3aS,5aR,5bR,7aR,11aS,11bR,13aR,13bR)-5a,5b,8,8,11a-pentamethyl-3a-(2-(2-oxopyrrolidin-1-yl)acetamido)-1-(prop-1-en-2-yl)-2,3,3a,4,5,5a,5b,6,7,7a,8,11,11a,11b,12,13,13a,13b-octadecahydro-1H-cyclopenta[a]chrysen-9-yl)benzoic acid]",< 100 nM

# Same assay, conditions: Renilla, NL43, luciferase activity in cells infected for 4-5 days with NLRluc recombinants, serial dilutions of inhibitor; numeric values; read-out: EC50
row,SMILES,EC50
1,"C=C(C)[C@@H]1CC[C@]2(NC(=O)C(=O)NC3CCCCC3)CC[C@]3(C)[C@H](CC[C@@H]4[C@@]5(C)CC=C(c6ccc(C(=O)O)cc6)C(C)(C)[C@@H]5CC[C@]43C)[C@@H]12 [Example 80, 4-((1R,3aS,5aR,5bR,7aR,11aS,11bR,13aR,13bR)-3a-(2-(cyclohexylamino)-2-oxoacetamido)-5a,5b,8,8,11a-pentamethyl-1-(prop-1-en-2-yl)-2,3,3a,4,5,5a,5b,6,7,7a,8,11,11a,11b,12,13,13a,13b-octadecahydro-1H-cyclopenta[a]chrysen-9-yl)benzoic acid]",110 nM
2,"C=C(C)[C@@H]1CC[C@]2(NC(=O)Cn3ccc4ccccc43)CC[C@]3(C)[C@H](CC[C@@H]4[C@@]5(C)CC=C(c6ccc(C(=O)O)cc6)C(C)(C)[C@@H]5CC[C@]43C)[C@@H]12 [Example 90, 4-((1R,3aS,5aR,5bR,7aR,11aS,11bR,13aR,13bR)-3a-(2-(1H-indol-1-yl)acetamido)-5a,5b,8,8,11a-pentamethyl-1-(prop-1-en-2-yl)-2,3,3a,4,5,5a,5b,6,7,7a,8,11,11a,11b,12,13,13a,13b-octadecahydro-1H-cyclopenta[a]chrysen-9-yl)benzoic acid]",20 nM
